Test results reported in patent US9540333B2, “Alkyl amide-substituted pyrimidine compounds useful in the modulation of IL-12, IL-23 and/or IFNα” (Bristol-Myers Squibb Company, priority 2012, dated 2017).

Key:
[1] = target: T1, His-tagged protein corresponding to amino acids 575-869 of human Tyk2 (Homo sapiens, UniProt P29597); assay: Probe displacement assay (scintillation proximity, radiolabeled probe); format: binding; conditions: 2.5 nM Tyk2 (575-869), 40 nM tritiated probe, 30 minutes at room temperature
T1 construct: His-tagged protein corresponding to amino acids 575-869 of human Tyk2; made in house
Protocol: The probe displacement assay is conducted as follows: In a […], test compounds along with recombinantly expressed His-tagged protein corresponding to amino acids 575-869 of human Tyk2 (sequence shown below) at 2.5 nM, 40 nM ((R)—N-(1-(3-(8-methyl-5-(methylamino)-8H-imidazo[4,5-d]thiazolo[5,4-b]pyridin-2-yl)phenyl)ethyl)-2-([^3H]methylsulfonyl)benzamide) (preparation described below) and 80 μg/mL Copper His-Tag scintillation proximity assay beads (Perkin Elmer, Catalog #RPNQ0095) in 50 mM HEPES, pH 7.5, containing 100 μg/mL bovine serum albumin and 5% DMSO were incubated for 30 minutes at room temperature. The amount of radiolabeled probe (preparation described below) bound to Tyk2 was then quantified by scintillation counting, and the inhibition by the test compound calculated by comparison to wells either with no inhibitor (0% inhibition) or without Tyk2 (100% inhibition). The IC50 value is defined as the concentration of test compound required to inhibit radiolabeled probe binding by 50%.
Protein Sequence of recombinant Hig-tagged Tyk2 (575-869):
The preparation of radiolabeled probe, (R)—N-(1-(3-(8-methyl-5-(methylamino)-8H-imidazo[4,5-d]thiazolo[5,4-b]pyridin-2-yl)phenyl)ethyl)-2-([^3H]methylsulfonyl)benzamide, was performed as described below.

[2] = test system: IL-23 stimulated Kit225 T cells with STAT-dependent luciferase reporter; assay: Kit225 T cell assay, IL-23 stimulated STAT-dependent luciferase reporter; format: cell-based; conditions: 20 ng/mL human recombinant IL-23, 5-6 hours, read-out: IL-23 Kit225 Reporter, LE (IC50)
Protocol: (§1) Kit225 T cells with a stably-integrated STAT-dependent luciferase reporter were plated in RPMI (Gibco) containing 10% heat-inactivated FBS (Gibco) and 100 U/mL PenStrep (Gibco). The cells were then stimulated with either 20 ng/mL human recombinant IL-23 or 200 U/mL human recombinant IFNα (PBL InterferonSource) for 5-6 hours. Luciferase expression was measured using the STEADY-GLO® Luciferase Assay System (Promega) according to the manufacturer's instructions. Inhibition data were calculated by comparison to no inhibitor control wells for 0% inhibition and non-stimulated control wells for 100% inhibition. Dose response curves were generated to determine the concentration required to inhibit 50% of cellular response (IC50) as derived by non-linear regression analysis.

[3] = test system: IFNα stimulated Kit225 T cells with STAT-dependent luciferase reporter; assay: Kit225 T cell assay, IFNα stimulated STAT-dependent luciferase reporter; format: cell-based; conditions: 200 U/mL human recombinant IFNα, 5-6 hours, read-out: IFNα Kit225 Reporter, LE (IC50)
Protocol: as §1

T1 sequence (P29597 575-869): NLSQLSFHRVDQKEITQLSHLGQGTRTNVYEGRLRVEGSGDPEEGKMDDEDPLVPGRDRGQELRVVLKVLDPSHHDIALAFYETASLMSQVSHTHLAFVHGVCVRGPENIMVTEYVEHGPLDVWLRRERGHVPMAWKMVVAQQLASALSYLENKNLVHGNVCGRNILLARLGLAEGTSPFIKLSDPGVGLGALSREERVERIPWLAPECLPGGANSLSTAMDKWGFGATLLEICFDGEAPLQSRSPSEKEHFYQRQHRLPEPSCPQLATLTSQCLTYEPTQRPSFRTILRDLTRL

SMILES | EC50 [1] | IC50 [2] | IC50 [3]
CNC(=O)c1cnc(Nc2ccc(F)cc2)nc1Nc1ccccc1C(N)=O [Example 2] | 60 nM | 2650 nM | 2790 nM
CNC(=O)c1cnc(Nc2ccc(F)cc2)nc1Nc1ccccc1 [Example 3] | 840 nM | 3510 nM | 12500 nM
CNC(=O)c1cnc(Nc2ccccc2)nc1Nc1ccccc1 [Example 4] | 530 nM | 8510 nM | 9520 nM
CNC(=O)c1cnc(Nc2cccc(-c3ccccc3)c2)nc1Nc1ccccc1C(N)=O [Example 5] | 50 nM | 4660 nM | 3020 nM
CNC(=O)c1cnc(Nc2ccc(F)cc2)nc1Nc1cccc(C(N)=O)c1 [Example 6] | 1350 nM | 3540 nM | 12500 nM
CNC(=O)c1cnc(NC2CCC2)nc1Nc1ccccc1C(N)=O [Example 7] | 110 nM | 9680 nM | 12500 nM
CNC(=O)c1cnc(NC2CCCC2)nc1Nc1ccccc1C(N)=O [Example 8] | 120 nM | 8280 nM | 12500 nM
CNC(=O)c1cnc(Nc2ccc(-c3ccccc3)cc2)nc1Nc1ccccc1C(N)=O [Example 10] | 70 nM | 1320 nM | 1450 nM

Now from value to compound:

EC50 [1] | IC50 [2] | IC50 [3] | SMILES
320 nM | 3400 nM | 1600 nM | CNC(=O)c1cnc(NCC2CC2)nc1Nc1ccccc1S(C)(=O)=O [Example 1]
70 nM | 60 nM | 590 nM | CNC(=O)c1cnc(Nc2ccc(F)cc2)nc1Nc1ccccc1S(C)(=O)=O [Example 11]
30 nM | 200 nM | 160 nM | CNC(=O)c1cnc(Nc2ccccc2)nc1Nc1ccccc1S(C)(=O)=O [Example 12]
20 nM | 200 nM | 310 nM | CNC(=O)c1cnc(Nc2ccc(F)c(C)c2)nc1Nc1ccccc1S(C)(=O)=O [Example 13]
8.47 nM | 280 nM | 460 nM | CNC(=O)c1cnc(Nc2ccc(F)c(F)c2)nc1Nc1ccccc1S(C)(=O)=O [Example 14]
